US9695155B2, “Herbicidal substituted pyrimidinyloxy benzene compounds” (E. I. DU PONT DE NEMOURS AND COMPANY, priority 2013, dated 2017)

How the values were obtained:
Italian ryegrass = test: Test D postemergence; assay type: in vivo, Lolium multiflorum; conditions: Lolium multiflorum, post-emergence; for pest or weed control at 31 g/ha: 31 g ai/ha; for pest or weed control at 62 g/ha: 62 g ai/ha; for pest or weed control at 125 g/ha: 125 g ai/ha
Excerpt: (§1) Seeds of plant species selected from bluegrass (annual bluegrass, Poa annua), blackgrass (Alopecurus myosuroides), canarygrass (littleseed canarygrass, Phalaris minor), chickweed (common chickweed, Stellaria media), galium (catchweed bedstraw, Galium aparine), bromegrass, downy (downy bromegrass, Bromus tectorum), field poppy (Papaver rhoeas), field violet (Viola arvensis), green foxtail (Setaria viridis), deadnettle (henbit deadnettle, Lamium amplexicaule), Italian ryegrass (Lolium multiflorum), kochia (Kochia scoparia), lambsquarters (Chenopodium album), oilseed rape (Brassica napus), pigweed (Amaranthus retroflexus), chamomile (scentless chamomile, Matricaria inodora), Russian thistle (Salsola kali), speedwell (bird's-eye speedwell, Veronica persica), spring barley (Hordeum vulgare), spring wheat (Triticum aestivum), wild buckwheat (Polygonum convolvulus), wild mustard (Sinapis arvensis), wild oat (Avena fatua), wild radish (Raphanus raphanistrum), windgrass (Apera spica-venti), winter barley (Hordeum vulgare), and winter wheat (Triticum aestivum) were planted into a silt loam soil and treated preemergence with test chemicals formulated in a non-phytotoxic solvent mixture which included a surfactant.
(§2) At the same time, these species were planted in pots containing Redi-Earth® planting medium (Scotts Company, 14111 Scottslawn Road, Marysville, Ohio 43041) comprising spaghnum peat moss, vermiculite, wetting agent and starter nutrients and treated with postemergence applications of the test chemicals formulated in the same manner. Plants ranged in height from 2 to 18 cm (1- to 4-leaf stage). Treated plants and controls were maintained in a controlled growth environment for 7 to 21 days after which time all species were compared to controls and visually evaluated. Plant response ratings, summarized in Table D, are based on a scale of 0 to 100 where 0 is no effect and 100 is complete control. A dash (-) response means no test result.

bluegrass = test: Test D postemergence; assay type: in vivo, Poa annua; conditions: Poa annua, post-emergence, Postemergence, scale 0 to 100 (0 no effect, 100 complete control), read-out: Plant response rating, Bluegrass; for pest or weed control at 31 g/ha: 31 g ai/ha; for pest or weed control at 62 g/ha: 62 g ai/ha; for pest or weed control at 125 g/ha: 125 g ai/ha
Excerpt: as §1, §2

lambsquarters = test: Test D preemergence; assay type: in vivo, Chenopodium album; conditions: Chenopodium album, pre-emergence; for pest or weed control at 31 g/ha: 31 g ai/ha; for pest or weed control at 62 g/ha: 62 g ai/ha; for pest or weed control at 125 g/ha: 125 g ai/ha
Excerpt: as §1, §2

blackgrass [1] = test: Test D preemergence; assay type: in vivo, Alopecurus myosuroides; conditions: Alopecurus myosuroides, pre-emergence; for pest or weed control at 31 g/ha: 31 g ai/ha; for pest or weed control at 62 g/ha: 62 g ai/ha; for pest or weed control at 125 g/ha: 125 g ai/ha
Excerpt: as §1, §2

spring barley = test: Test D preemergence; assay type: in vivo, Hordeum vulgare; conditions: Hordeum vulgare, pre-emergence; for plant injury at 31 g/ha: 31 g ai/ha; for plant injury at 62 g/ha: 62 g ai/ha; for plant injury at 125 g/ha: 125 g ai/ha
Excerpt: as §1, §2

winter barley = test: Test D preemergence; assay type: in vivo, Hordeum vulgare; conditions: Hordeum vulgare, pre-emergence; for plant injury at 31 g/ha: 31 g ai/ha; for plant injury at 62 g/ha: 62 g ai/ha; for plant injury at 125 g/ha: 125 g ai/ha
Excerpt: as §1, §2

wild oat = test: Test D preemergence; assay type: in vivo, Avena fatua; conditions: Avena fatua, pre-emergence; for pest or weed control at 31 g/ha: 31 g ai/ha; for pest or weed control at 62 g/ha: 62 g ai/ha; for pest or weed control at 125 g/ha: 125 g ai/ha
Excerpt: as §1, §2

blackgrass [2] = test: Test D postemergence; assay type: in vivo, Alopecurus myosuroides; conditions: Alopecurus myosuroides, post-emergence, Postemergence, scale 0 to 100 (0 no effect, 100 complete control), read-out: Plant response rating, Blackgrass; for pest or weed control at 62 g/ha: 62 g ai/ha; for pest or weed control at 31 g/ha: 31 g ai/ha; for pest or weed control at 125 g/ha: 125 g ai/ha
Excerpt: as §1, §2

pigweed = test: Test D preemergence; assay type: in vivo, Amaranthus retroflexus; conditions: Amaranthus retroflexus, pre-emergence; for pest or weed control at 31 g/ha: 31 g ai/ha; for pest or weed control at 62 g/ha: 62 g ai/ha; for pest or weed control at 125 g/ha: 125 g ai/ha
Excerpt: as §1, §2

[3] = scale 0 to 100 (0 no effect, 100 complete control), read-out: Plant response rating, Ryegrass, Italian
[4] = scale 0-100, read-out: Plant response rating, Lambsquarters
[5] = scale 0-100, read-out: Plant response rating, Blackgrass
[6] = scale 0-100, read-out: Plant response rating, Barley, Spring
[7] = scale 0-100, read-out: Plant response rating, Barley, Winter
[8] = scale 0-100, read-out: Plant response rating, Oat, Wild
[9] = scale 0 (no effect) to 100 (complete control), read-out: Plant response rating, Pigweed
[10] = scale 0-100, read-out: Plant response rating, Pigweed

SMILES	pest or weed control at 31 g/ha (Italian ryegrass; [3])	pest or weed control at 62 g/ha (Italian ryegrass; [3])	pest or weed control at 125 g/ha (Italian ryegrass; [3])	pest or weed control at 31 g/ha (bluegrass)	pest or weed control at 62 g/ha (bluegrass)	pest or weed control at 125 g/ha (bluegrass)	pest or weed control at 31 g/ha (lambsquarters; [4])	pest or weed control at 62 g/ha (lambsquarters; [4])	pest or weed control at 125 g/ha (lambsquarters; [4])	pest or weed control at 31 g/ha (blackgrass [1]; [5])	pest or weed control at 62 g/ha (blackgrass [1]; [5])	pest or weed control at 125 g/ha (blackgrass [1]; [5])	plant injury at 31 g/ha (spring barley; [6])	plant injury at 62 g/ha (spring barley; [6])	plant injury at 125 g/ha (spring barley; [6])	plant injury at 31 g/ha (winter barley; [7])	plant injury at 62 g/ha (winter barley; [7])	plant injury at 125 g/ha (winter barley; [7])	pest or weed control at 31 g/ha (wild oat; [8])	pest or weed control at 62 g/ha (wild oat; [8])	further results
N#Cc1cccc(Oc2ncc(Cl)cn2)c1-n1cc(Br)cn1 [Compound 52, 2-(4-bromo-1H-pyrazol-1-yl)-3-[(5-chloro-2-pyrimidinyl)oxy]benzonitrile]	5%	5%	20%	15%	20%	15%	80%	100%	100%	5%	5%	30%	5%	10%	10%	0%	0%	5%	0%	0%	pest or weed control at 250 g/ha (Italian ryegrass; 250 g ai/ha, scale 0 to 100 (0 no effect, 100 complete control), read-out: Plant response rating, Ryegrass, Italian): 35%; pest or weed control at 250 g/ha (bluegrass; 250 g ai/ha): 25%; pest or weed control at 250 g/ha (lambsquarters; 250 g ai/ha, scale 0-100, read-out: Plant response rating, Lambsquarters): 100%; pest or weed control at 250 g/ha (blackgrass [1]; 250 g ai/ha, scale 0-100, read-out: Plant response rating, Blackgrass): 95%; plant injury at 250 g/ha (spring barley; 250 g ai/ha, scale 0-100, read-out: Plant response rating, Barley, Spring): 50%; plant injury at 250 g/ha (winter barley; 250 g ai/ha, scale 0-100, read-out: Plant response rating, Barley, Winter): 35%; pest or weed control at 125 g/ha (wild oat; [8]): 0%; pest or weed control at 250 g/ha (wild oat; 250 g ai/ha, scale 0-100, read-out: Plant response rating, Oat, Wild): 20%; pest or weed control at 62 g/ha (blackgrass [2]): 30%; pest or weed control at 31 g/ha (blackgrass [2]): 30%; pest or weed control at 125 g/ha (blackgrass [2]): 40%; pest or weed control at 250 g/ha (blackgrass [2]; 250 g ai/ha): 65%; pest or weed control at 31 g/ha (pigweed; [9]): 100%; pest or weed control at 62 g/ha (pigweed; [10]): 100%; pest or weed control at 125 g/ha (pigweed; [10]): 100%; pest or weed control at 250 g/ha (pigweed; 250 g ai/ha, scale 0-100, read-out: Plant response rating, Pigweed): 100%
Fc1cccc(Oc2ncc(Cl)cn2)c1-n1cc(C(F)F)nn1 [Compound 141, 5-chloro-2-[2-[4-(difluoromethyl)-1H-1,2,3-triazol-1-yl]-3-fluorophenoxy]pyrimidine]	15%	20%	25%	20%	35%	40%	100%	100%	100%	65%	90%	95%	20%	65%	90%	35%	65%	90%	65%	80%	pest or weed control at 16 g/ha (Italian ryegrass; 16 g ai/ha, scale 0-100, read-out: Plant response rating, Ryegrass, Italian): 5%; pest or weed control at 16 g/ha (bluegrass; 16 g ai/ha): 5%; pest or weed control at 16 g/ha (lambsquarters; 16 g ai/ha, scale 0 (no effect) to 100 (complete control), read-out: Plant response rating, Lambsquarters): 100%; pest or weed control at 16 g/ha (blackgrass [1]; 16 g ai/ha, scale 0 (no effect) to 100 (complete control), read-out: Plant response rating, Blackgrass): 40%; plant injury at 16 g/ha (spring barley; 16 g ai/ha, scale 0 (no effect) to 100 (complete control), read-out: Plant response rating, Barley, Spring): 15%; plant injury at 16 g/ha (winter barley; 16 g ai/ha, scale 0 (no effect) to 100 (complete control), read-out: Plant response rating, Barley, Winter): 15%; pest or weed control at 16 g/ha (wild oat; 16 g ai/ha, scale 0 (no effect) to 100 (complete control), read-out: Plant response rating, Oat, Wild): 30%; pest or weed control at 125 g/ha (wild oat; [8]): 98%; pest or weed control at 62 g/ha (blackgrass [2]): 35%; pest or weed control at 16 g/ha (blackgrass [2]; 16 g ai/ha): 10%; pest or weed control at 31 g/ha (blackgrass [2]): 25%; pest or weed control at 125 g/ha (blackgrass [2]): 55%; pest or weed control at 16 g/ha (pigweed; 16 g ai/ha, scale 0 (no effect) to 100 (complete control), read-out: Plant response rating, Pigweed): 98%; pest or weed control at 31 g/ha (pigweed; [9]): 100%; pest or weed control at 62 g/ha (pigweed; [10]): 100%; pest or weed control at 125 g/ha (pigweed; [10]): 100%
